Measurements from US9340500B2, “Aromatic heterocyclic derivative having TRPV4-inhibiting activity” (SHIONOGI & CO., LTD., priority 2011, dated 2016).
Values after ≈ are worked out from the molar mass of the structure shown.

Key:
[1] = biological target: T1, human TRPV4 (Homo sapiens (Human), UniProt Q9HBA0); test: Test Example 1: measurement of TRPV4 inhibitory activity (Fluo 4-AM, FLIPR TETRA, 4α-PDD 1 μmol/L); type: cell-based; conditions: hTRPV4/CHO cells; for IC50: 4α-PDD 1 μmol/L
Method: (§1) For each compound, TRPV4 inhibitory activity was measured using cells.
(§2) (1) The TRPV4 inhibitory activity was measured using CHO-K1 cells stably expressing human TRPV4 (hTRPV4/CHO cells).
(2) In the day before the experimental day, frozen cell were thawed and washed with the culture medium (MEM-α, 10% FBS, 2 mmol/L GlutaMax, 50 unit Penicillin, 50 μg/mL Streptomycin). Then cells were suspended in the culture medium.
(3) The 384-well plates which hTRPV4/CHO cells were seeded at densities of 4000 cells/well in the culture medium and cultured in a CO2 incubator in the presence of 5% CO2 at 37° C. for overnight was used as assay plates.
(4) The assay plate was washed with assay buffer (Hanks, 20 mmol/L HEPES, 2.5 mmol/L probenecid, pH7.4), and the buffer were remained at 20 μL/well.
(5) 10 μl of dye loading buffer (9 μmol/L Fluo 4-AM, 0.09% Pluronic F-127/assay buffer) was added to each well, then the assay plate was incubated in a CO2 incubator in the presence of 5% CO2 at 37° C. for one hour. (final 3 μmol/L Fluo4-AM).
(6) The assay plate was washed with the assay buffer, and the buffers were remained at 20 μL/well. Then the assay plate was incubated for 10 min at room temperature.
(7) Diluted compound solution was dispensed to each well in the compound plate, and mixed with built-in Pipette and Mixer of the Fluorescence analysis system FLIPR TETRA (Molecular devices).
(8) After incubation for 5 min, 20 μL of 4α-PDD solution were applied to each well of assay plate and mixed with the FLIPR TETRA. (final 1 μmol/L 4α-PDD)
(9) The fluorescent intensity was measured with FLIPR TETRA system for 10 min from the point of time addition the compound solution, at Ex 470-495 nm, Em 515-575 nm wavelength.
TRPV4 inhibitory activity (IC50 value and Ki value) of a compound was evaluated according to the following procedure.
(10) In the presence of the compound, the difference between maximal and minimal of fluorescent intensity value for 5 min from just before addition of 4α-PDD solution was calculated, and it was referred as Max-Min value. Max-Min value of the Ruthenium Red at 20 μM was defined as 100% inhibitory activity, Max-Min value in the absence of the compound was defined as 0% inhibitory activity. The TRPV4 inhibitory activity of the compound was calculated by the following formula. (1−(Max-Min value of the compound−100% inhibitory activity)/(0% inhibitory activity−100% inhibitory activity))×100 (11) Inhibitory activity was calculated at 10 points with three fold serial dilution, in the final concentration of the compound from 10 μmmol/L to 0.5 nmol/L, the IC50 value was calculated by logistic approximation method. (12) In the absence of the compound, the fluorescent intensity was measured as the same method with 10, 1, 0.5, 0.2, and 0 μmol/L as final concentration of 4α-PDD. The difference of minimal and maximal fluorescent intensity value for 5 min from just before addition of 4α-PDD solution was calculated, and it was referred as Max-Min value. Max-Min value of the 4α-PDD at 10 μmol/L was defined as 100% activity, Max-Min value in the absence of 4α-PDD was defined as 0% activity. The TRPV4 activity of each concentration of 4α-PDD was calculated by the following formula. (Max-Min value of the each 4α-PDD concentration−0% activity)/(100% activity−0% activity))×100 (13) Effective activity was calculated in 5 concentrations of 4α-PDD the above. The EC50 value was calculated by logistic approximation method. The Ki value of a compound was calculated by the following formula. Ki (nmol/L)=IC50 value (nmol/L)/(1+[…] (test 4α-PDD concentration (nmol/L)/EC50 value (nmol/L))

[2] = biological target: T1, human TRPV4; test: Test Example 3: measurement of TRPV4 inhibitory activity (Fluo-3, FDSS 3000, 4α-PDD); type: cell-based; conditions: hTRPV4/CHO cells, calculated from IC50 and 4α-PDD EC50
Method: as §1, §2
(2) Frozen cells were thawed and subcultured with the medium (MEM-α, 10% FBS, […], 50 unit/mL penicillin, 50 μg/mL streptomycin, 1 mg/mL G418).
(3) The 96-well plates which hTRPV4/CHO cells were seeded at densities of 2×10^4 cells/well in the culture medium and cultured in a CO2 incubator in the presence of 5% CO2 at 37° C. for 24 h was used as assay plates.
(4) The assay plate was washed with assay buffer (Hanks, […], […], pH7.4).
(5) Fluo-3, fluorescent dye for Ca influx assay was added to each well, then the assay plate was incubated in a CO2 incubator in the presence of 5% CO2 at 37° C. for one hour (final conc.; 5 μmmol/L Fluo-3).
(6) The assay plate was washed with the assay buffer, and the buffer was remained at 30 μL/well. Then the assay plate was incubated for 10 min at 37° C.
(7) Diluted compound solution was dispensed to each well in the compound plate, and mixed with built-in Pipette and Mixer of the fluorescence analysis system FDSS 3000 (Hamamatsu Photonics).
(8) 50 μL of 4α-PDD solution (concluding 0.1% Pluronic F-127) was applied to each well of assay plate and mixed.
(9) The fluorescent intensity was measured by FDSS 3000 for 8 min from the point of time addition the compound solution, at Ex 480 nm, Em 540 nm wavelength.
TRPV4 inhibitory activity (Ki value) of a compound was evaluated according to the following procedure.
(10) In the presence of the compound, the difference between maximal and minimal of fluorescent intensity value for 8 min from just before addition of 4α-PDD solution was calculated, and it was referred as Max-Min value. Max-Min value of the Ruthenium Red at 10 μM was defined as 100% inhibitory activity, Max-Min value in the absence of the compound was defined as 0% inhibitory activity. The TRPV4 inhibitory activity of the compound was calculated by the following formula. (1−(Max-Min value of the compound−100% inhibitory activity)/(0% inhibitory activity−100% inhibitory activity))×100 (11) By the following formula, inhibitory activity was calculated at 10 points with three fold serial dilution, in the final concentration of the compound from 10 μmmol/L to 0.5 nmol/L. The IC50 value was calculated by dose-response curve. 100−[(fluorescent intensity in the presence of the compound−fluorescent intensity of back ground)/(total fluorescent intensity−fluorescent intensity of back ground)]×100 (12) In the presence of the compound, activity of 4α-PDD was measured at 9 points with three fold serial dilution from 20 μmol/L. Activity of 4α-PDD was calculated by the following formula. (Max-Min value of the each 4α-PDD concentration−0% activity)/(100% activity−0% activity))×100 (13) Effective activity was calculated in 4α-PDD the above. The EC50 value was calculated by dose-response curve. (14) The Ki value of a compound was calculated by the following formula. Ki (nmol/L)=IC50 value (nmol/L)/([A]/EC50 value (nmol/L)) [A]; Concentration of agonist (nmol/L)

[3] = Solubility test; type: physicochemical; conditions: fassgf or other biorelevant, kinetic from dmso stock, artificial intestinal juice pH 6.8, 16 hours at 25° C.
Method: The solubility of each compound is determined under 1% DMSO addition conditions. A 10 mmol/L solution of the compound is prepared with DMSO, and 6 μL of the compound solution is added to 594 μL of an artificial intestinal juice (water and 118 mL of 0.2 mol/L NaOH reagent are added to 250 mL of 0.2 mol/L potassium dihydrogen phosphate reagent to reach 1000 mL) with a pH of 6.8. The mixture is left standing for 16 hours at 25° C., and the mixture is vacuum-filtered. The filtrate is two-fold diluted with methanol/water=1/1, and the compound concentration in the filtrate is measured with HPLC or LC/MS/MS by the absolute calibration method.

T1 sequence (Q9HBA0 whole entry): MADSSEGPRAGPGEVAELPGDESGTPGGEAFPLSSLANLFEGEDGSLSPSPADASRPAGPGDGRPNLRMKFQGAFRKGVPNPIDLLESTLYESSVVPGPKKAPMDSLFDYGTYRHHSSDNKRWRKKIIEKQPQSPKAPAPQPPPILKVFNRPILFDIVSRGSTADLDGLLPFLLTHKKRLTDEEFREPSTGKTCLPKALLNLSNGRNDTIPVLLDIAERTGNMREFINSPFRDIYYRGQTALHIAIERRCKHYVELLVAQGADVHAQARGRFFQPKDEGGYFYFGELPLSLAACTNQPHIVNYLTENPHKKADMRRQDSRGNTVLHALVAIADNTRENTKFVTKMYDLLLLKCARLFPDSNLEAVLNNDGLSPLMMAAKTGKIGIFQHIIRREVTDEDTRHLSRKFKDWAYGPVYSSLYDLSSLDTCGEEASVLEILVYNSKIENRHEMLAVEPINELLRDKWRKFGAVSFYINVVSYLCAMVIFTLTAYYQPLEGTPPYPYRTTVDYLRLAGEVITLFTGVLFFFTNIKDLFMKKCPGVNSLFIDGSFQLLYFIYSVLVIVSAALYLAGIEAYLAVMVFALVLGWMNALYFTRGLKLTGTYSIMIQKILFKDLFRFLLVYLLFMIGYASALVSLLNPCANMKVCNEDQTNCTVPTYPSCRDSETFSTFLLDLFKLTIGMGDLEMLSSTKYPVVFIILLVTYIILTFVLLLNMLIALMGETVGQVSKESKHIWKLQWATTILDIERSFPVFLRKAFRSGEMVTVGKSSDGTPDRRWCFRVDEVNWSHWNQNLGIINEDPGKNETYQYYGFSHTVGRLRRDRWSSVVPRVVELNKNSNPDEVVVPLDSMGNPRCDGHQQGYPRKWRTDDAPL

Compound: Cc1c(C(=O)Nc2cccc(C(F)(F)F)c2)cc(-c2ccccc2)n1CCCO [Compound I-006]
- IC50 [1]: 2300 nM
- Ki [2]: 1060 nM

Compound: Cc1c(C(=O)Nc2cccc(C(F)(F)F)c2)cc(-c2ccccc2)n1CCCN1CCCCC1 [Compound I-008]
- IC50 [1]: 82 nM
- Ki [2]: 327 nM

Compound: COCCCn1c(-c2ccccc2)cc(C(=O)Nc2cccc(C(F)(F)F)c2)c1C [Compound I-010]
- IC50 [1]: 800 nM
- Ki [2]: 714 nM

Compound: CC(=O)N1CCN(CCCn2c(-c3ccccc3)cc(C(=O)Nc3cccc(C(F)(F)F)c3)c2C)CC1 [Compound I-015]
- IC50 [1]: 2600 nM
- Ki [2]: 1440 nM

Compound: Cc1c(C(=O)Nc2ccc(C(F)(F)F)cc2)cc(-c2ccccc2)n1CCCN1CCOCC1 [Compound I-024]
- IC50 [1]: 340 nM
- Ki [2]: 755 nM

Compound: CC(=O)NCCCn1c(-c2ccccc2)cc(C(=O)Nc2cccc(C(F)(F)F)c2)c1C [Compound I-025]
- IC50 [1]: 3200 nM
- Ki [2]: 1130 nM

Compound: COC(=O)NCCCn1c(-c2ccccc2)cc(C(=O)Nc2cccc(C(F)(F)F)c2)c1C [Compound I-027]
- IC50 [1]: 1800 nM
- Ki [2]: 936 nM

Compound: O=C(Nc1cccc(C(F)(F)F)c1)c1cc(-c2ccccc2)n(CCCN2CCOCC2)c1C(F)(F)F [Compound I-028]
- IC50 [1]: 3800 nM
- Ki [2]: 1710 nM

Compound: Cc1c(C(=O)Nc2cccc(C(F)(F)F)c2)cc(-c2ccccc2)n1CCCN(C)CC(C)C [Compound I-032]
- IC50 [1]: 640 nM
- Ki [2]: 1610 nM

Compound: Cc1c(C(=O)Nc2cccc(C(F)(F)F)c2)cc(-c2ccccc2)n1CCCN(C)C(=O)C1CCCC1 [Compound I-049]
- IC50 [1]: 240 nM
- Ki [2]: 418 nM

Compound: Cc1c(C(=O)Nc2cccc(C(F)(F)F)c2)cc(-c2ccccc2)n1CCCN(C)C(=O)c1ccc2ccccc2n1 [Compound I-055]
- Ki [2]: 984 nM

Compound: CC(=O)Nc1ccc(C(=O)N(C)CCCn2c(-c3ccccc3)cc(C(=O)Nc3cccc(C(F)(F)F)c3)c2C)cc1 [Compound I-056]
- Ki [2]: 560 nM

Compound: CC(=O)N1CCC(C(=O)N(C)CCCn2c(-c3ccccc3)cc(C(=O)Nc3cccc(C(F)(F)F)c3)c2C)CC1 [Compound I-057]
- Ki [2]: 1790 nM

Compound: Cc1c(C(=O)Nc2cccc(C(F)(F)F)c2)cc(-c2ccccc2)n1CCCN(C)C(=O)c1ccc2occc2c1 [Compound I-058]
- Ki [2]: 1650 nM

Compound: Cc1c(C(=O)Nc2cccc(C(F)(F)F)c2)cc(-c2ccccc2)n1CCCN(C)C(=O)C1CCC1 [Compound I-059]
- Ki [2]: 472 nM

Compound: Cc1c(C(=O)Nc2cccc(C(F)(F)F)c2)cc(-c2ccccc2)n1CCCN(C)C(=O)c1ccc(N(C)C)cc1 [Compound I-060]
- Ki [2]: 1350 nM

Compound: Cc1c(C(=O)Nc2cccc(C(F)(F)F)c2)cc(-c2ccccc2)n1CCCN(C)C(=O)c1csc(-c2ccccc2)n1 [Compound I-061]
- Ki [2]: 1700 nM

Compound: Cc1c(C(=O)Nc2cccc(C(F)(F)F)c2)cc(-c2ccccc2)n1CCCN(C)C(=O)c1csc(-c2cccs2)n1 [Compound I-062]
- Ki [2]: 1390 nM

Compound: Cc1c(C(=O)Nc2cccc(C(F)(F)F)c2)cc(-c2ccccc2)n1CCCN(C)C(=O)c1ccno1 [Compound I-063]
- IC50 [1]: 510 nM
- Ki [2]: 251 nM

Compound: Cc1c(C(=O)Nc2cccc(C(F)(F)F)c2)cc(-c2ccccc2)n1CCCN(C)C(=O)C(Cl)(Cl)Cl [Compound I-064]
- Ki [2]: 713 nM

Compound: COc1ccc(OC)c(CC(=O)N(C)CCCn2c(-c3ccccc3)cc(C(=O)Nc3cccc(C(F)(F)F)c3)c2C)c1 [Compound I-065]
- Ki [2]: 850 nM

Compound: Cc1c(C(=O)Nc2cccc(C(F)(F)F)c2)cc(-c2ccccc2)n1CCCN(C)C(=O)c1cnc2ccccc2n1 [Compound I-066]
- Ki [2]: 662 nM

Compound: Cc1c(C(=O)Nc2cccc(C(F)(F)F)c2)cc(-c2ccccc2)n1CCCN(C)C(=O)C(=O)c1c[nH]c2ccccc12 [Compound I-067]
- Ki [2]: 2370 nM

Compound: Cc1c(C(=O)Nc2cccc(C(F)(F)F)c2)cc(-c2ccccc2)n1CCCN(C)C(=O)C1CCOCC1 [Compound I-068]
- Ki [2]: 1010 nM

Compound: Cc1c(C(=O)Nc2cccc(C(F)(F)F)c2)cc(-c2ccccc2)n1CCCN(C)C(=O)c1cccc(N(C)C)c1 [Compound I-069]
- Ki [2]: 816 nM

Compound: CC(=O)N(C)CCCn1c(-c2ccccc2)cc(C(=O)Nc2cccc(C(F)(F)F)c2)c1C [Compound I-070]
- IC50 [1]: 590 nM
- Ki [2]: 1680 nM

Compound: Cc1c(C(=O)Nc2cccc(C(F)(F)F)c2)cc(-c2ccccn2)n1CCCN1CCOCC1 [Compound I-073]
- solubility at 16 h ([3]; artificial intestinal juice (phosphate buffer) with 1% DMSO): 28.9 µM (≈ 13.7 µg/mL)
- IC50 [1]: 340 nM
- Ki ([1]; calculated from IC50 and 4α-PDD EC50): 160 nM

Compound: Cc1c(NC(=O)Nc2cccc(C(F)(F)F)c2)cc(-c2ccccc2)n1CCCN1CCOCC1 [Compound I-081]
- IC50 [1]: 3900 nM
- Ki [2]: 1610 nM

Compound: Cc1c(C(=O)Nc2cccc(C(F)(F)F)c2)cc(-c2ccccc2)n1CCN1CCOCC1 [Compound I-083]
- IC50 [1]: 400 nM
- Ki [2]: 443 nM

Compound: Cc1c(C(=O)Nc2cccc(C(F)(F)F)c2)nc(-c2ccccc2)n1CCCN1CCOCC1 [Compound I-087]
- solubility at 16 h ([3]; artificial intestinal juice (phosphate buffer), 1% DMSO): 5.2 µM (≈ 2.46 µg/mL)
